The numbers were not newly measured in EP0331593A1, “Process for the preparation of hydroxybenzaldehydes by hydrocarbonylation” (RHONE-POULENC CHIMIE, priority 1988, dated 1989), which cites them from elsewhere.

Like-named read-outs stand apart in the source and are kept apart here.

For data set [1] the following is noted: in water, generally 25°C.
For data set [2] the following is noted: phosphine.

Turning to `Cc1ccnc(C)c1` [Diméthyl-2,4 Pyridine], the “pKa * (pka del'acide conjugué de l'amine tertiaire)” value in data set [1] (Tableau I) and in data set [1] (Tableau III) was 6,99 in each case. For the same molecule, the “pKa * (pka de l'acide conjugé de l'amine tertiaire)” value in data set [1] (Tableau II) and in data set [1] (Tableau IV) was 6,99 throughout.
On to `Cc1cccc(C)n1` [Diméthyl-2,6 Pyridine], for which, in data set [1] (Tableau I), the “pKa * (pka del'acide conjugué de l'amine tertiaire)” value is 6,73. In addition, the “pKa * (pka de l'acide conjugé de l'amine tertiaire)” value in data set [1] (Tableau II) is 6,73.
On to `Cc1ccncc1C` [Diméthyl-3,4 Pyridine], for which, in data set [1] (Tableau I), the “pKa * (pka del'acide conjugué de l'amine tertiaire)” value is reported as 6,57. The “pKa * (pka de l'acide conjugé de l'amine tertiaire)” value in data set [1] (Tableau II) is on record as 6,57.
On to `Cc1ccncc1` [Gamma Picoline], for which the “pKa * (pka del'acide conjugué de l'amine tertiaire)” value in data set [1] (Tableau I) is 6,02.
As to `c1cnccn1` [Pyrazine], the “pKa * (pka del'acide conjugué de l'amine tertiaire)” value in data set [1] (Tableau I) and in data set [1] (Tableau III) was 0,65 in each case. The “pKa * (pka de l'acide conjugé de l'amine tertiaire)” value in data set [1] (Tableau IV) is listed as 0,65.
On to `c1ccc(P(c2ccccc2)c2ccccc2)cc1` [triphénylphosphine], for which the “pKa à 25°C” value in data set [2] was 2,73.
On to `Cc1cccc(P(c2cccc(C)c2)c2cccc(C)c2)c1` [tris(méthyl-3 phényl)phosphine], for which the “pKa à 25°C” value in data set [2] is reported as 3,3.
